The text below walks through data of US20200163984A1, “USE OF ISOVALERYL SPIRAMYCIN I, II AND/OR III IN MANUFACTURING MEDICAMENT FOR TREATING AND/OR PREVENTING TUMOR, AND MEDICAMENT” (SHENYANG FUYANG PHARMACEUTICAL TECHNOLOGY CO., LTD., priority 2017, published 2020).

Molecules are shown by their SMILES.

The test system of data set [1] is transplanted tumor of human non-small cell lung cancer cell A549. Kind of data set: A549 transplanted tumor in nude mice. To be noted: A549 nude mice, 30 mg/kg. On the procedure:
(§1) A549 cells in a logarithmic growth phase were taken and subjected to a trypan blue exclusion experiment showing that the cell viability was more than 95%, then the cells were subjected to trypsinization, centrifugation, and supernatant removal. Then cell concentration was adjusted to 1×10^7/ml with matrigel, then each nude mouse was inoculated subcutaneously with 0.2 ml of cells at its right armpit and recorded as the first day of inoculation. When the tumor grows to be greater than or equal to 100 mm^3, the mice were randomly divided into 11 groups with 6 mice in each group: a model group, a cyclophosphamide group, isovaleryl spiramycin I groups with doses of 25, 50 and 100 mg/kg, isovaleryl spiramycin II groups with doses of 25, 50 and 100 mg/kg, and isovaleryl spiramycin III groups with doses of 25, 50 and 100 mg/kg. Each group was continuously administered intragastrically for 30 days with a dose of 20 ml/kg. The mice were sacrificed the next day after drug withdrawal and the indicators were tested. The long diameter and short diameter of the tumor, and the body weight of each mouse were recorded every 3 days from drug administration to nude mouse sacrifice.
(§2) The body weight of the nude mice and the long diameter (a) and short diameter (b) of the transplanted tumor were measured every 3 days, and the tumor volume (v), relative tumor volume (RTV) and relative tumor proliferation rate (T/C) are calculated respectively according to the following formulas, wherein V=a×b^2/2; RTV=V/V0 (V0 is the tumor volume before administration, V is the tumor volume before sacrifice), and T/C (%)=treatment group RTV/model control group RTV×100%.
(§3) Each mouse was weighed and sacrificed. After the tumor was completely stripped off from the body of the mouse, the non-tumor tissues such as blood stains and fat were removed to weigh the tumor and calculate the tumor growth inhibition rate. The average tumor weight of each group of mice is used as an indicator of efficacy. Tumor growth inhibition rate (%)=(1−the average tumor weight of the treatment group/the average tumor weight of the model group)×100%.

The subject of data set [2] is transplanted tumor of human glioma cell U251. Kind of data set: U251 transplanted tumor in nude mice. The settings on record: U251 nude mice, 30 mg/kg. Here is the method:
as §1, with “U251” for “A549”
as §2, §3

For data set [3], the system named is transplanted tumor of human renal clear cell adenocarcinoma cell 786-O. Kind of data set: 786-O transplanted tumor in nude mice. The settings on record: 786-O nude mice, 30 mg/kg. On the procedure:
as §1, with “786-O” for “A549”
as §2, §3

As to `O=P1(N(CCCl)CCCl)NCCCO1` (stereo not drawn) [Cyclophosphamide, cyclophosphamide, reference compound], the “Inhibition Rate (%)” value in data set [1] is 70.59%; in data set [2] it was 69.31%; in data set [3], 70.51%. Also, the “Relative Tumor Proliferation Rate (T/C)” value in data set [1] is listed as 39.73%; in data set [2], 62.92%; in data set [3], 37.41%. Besides, the entries for the “Relative Tumor Volume (RTV)” value in data set [1], in data set [2] and in data set [3] were 9.47 ± 2.91, 4.23 ± 0.95 and 6.76 ± 0.79, respectively. Besides, the “Tumor Weight” value is 0.70 ± 0.39 g in data set [1], 0.42 ± 0.06 g in data set [2] and 0.63 ± 0.04 g in data set [3]. In addition, the entries for the “Body Weight (g) (d1)” value in data set [1] (d1), in data set [2] (d1) and in data set [3] (d1) were 21.89 ± 1.22 g, 20.72 ± 0.48 g and 21.58 ± 0.81 g, respectively. Besides, the “Tumor Volume (mm3) (d 1)” value is 115.15 ± 10.00 mm3 in data set [1] (d1), 119.00 ± 11.13 mm3 in data set [2] (d1) and 108.64 ± 14.40 mm3 in data set [3] (d1). Besides, the “Body Weight (g) (d30)” value in data set [1] (d30) is reported as 19.27 ± 1.49 g; in data set [2] (d30) it was 19.40 ± 1.40 g; in data set [3] (d30), 19.42 ± 0.67 g. The “Tumor Volume (mm3) (d30)” value is given as 733.89 ± 352.79 mm3 in data set [1] (d30), 504.56 ± 93.91 mm3 in data set [2] (d30) and 734.23 ± 24.66 mm3 in data set [3] (d30).
